According to patent US12630546B2, “RNF4 targeting compounds and uses thereof” (TECHNION RESEARCH & DEVELOPMENT FOUNDATION LIMITED, priority 2021, dated 2026):
pIC50: −log10 of the molar value. “Also recorded” adds a separate entry of the source.

Legend:
[1] = system: human squamous skin cancer cells (SCC1); test: Colony formation of squamous cell carcinoma cells; type: cell-based
Method: Colony formation assay: Cells were suspended in DMEM or RPMI medium and seeded at a density of 1000 cells/well. Plates were maintained at 37° C. for six days, fixed overnight with 4% paraformaldehyde (PFA), stained with 0.05% crystal violet.

human A375R melanoma = test: Colony formation of PLX-resistant melanoma cells; type: cell-based; conditions: added at cell seeding, colonies visualized 8 d after seeding
A375R melanoma cells [2] = test: Cell viability (MTT) of Vemurafenib-resistant melanoma cells; type: cell-based, human; conditions: six days, in presence of PLX4032
Method: (§1) Cell viability was assessed using MTT (Sigma-Aldrich) and ATP-lite (Perkin Elmer) assays according to the manufacture instructions. In assays evaluating resistance to PLX4032, PLX4032-treated cells were cultured for six days before analysis. Viability was measured using cells were performed in 96-well plates and cells incubated for 24 h at 37° C. Next, cells were incubated in MTT solution (Sigma-Aldrich) and processed according to the manufacturer instructions and analyzed using Stat Fax 2100 ELISA reader.

[3] = system: U2OS human osteosarcoma cells; test: Cell viability (MTT) of osteosarcoma cells; type: cell-based; conditions: concentrations similar to A375R
Method: as §1

[4] = system: mouse melanoma B16F10 cancer cells; test: Cell viability (MTT) of B16F10 melanoma cells; type: cell-based; conditions: three days treatment
Method: as §1

[5] = system: B16F10 murine melanoma cells; test: Colony formation of B16F10 melanoma cells; type: cell-based, mouse; conditions: nine days
A375R melanoma cells [6] = test: Cell death by FACS analysis (sub-G1); type: cell-based, human; conditions: 3 h exposure, 20 uM
human U2OS sarcoma cells = test: Colony formation of osteosarcoma cells; type: cell-based; conditions: added at cell seeding, colonies visualized 9 d after seeding
human Myeloma U266 cells = test: Cell viability (MTT) of multiple myeloma cells; type: cell-based; conditions: concentrations similar to A375R
Method: as §1

RNF4 = biological target: T1, RNF4 (Homo sapiens, UniProt P78317); test: RNF4 protein level by western blot after R4VP treatment; type: cell-based; set-up: RNF4 degradation in the presence of proteasome inhibitor MG132: dose or concentration left out as unconfirmed
T1 construct: endogenous in cells; host or cells: A375 / A375R human melanoma cells
T1 sequence (P78317 1-190): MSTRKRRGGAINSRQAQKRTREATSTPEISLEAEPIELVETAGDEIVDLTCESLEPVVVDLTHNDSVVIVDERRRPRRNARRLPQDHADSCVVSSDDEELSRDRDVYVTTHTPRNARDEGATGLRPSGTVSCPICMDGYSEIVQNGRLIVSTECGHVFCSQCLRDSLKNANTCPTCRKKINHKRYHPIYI
Method: Protein stability was determined in steady state and dynamic CHX chase experiments as described (Trausch-Azar et al. 2015). Proteins resolved over SDS-PAGE, using the indicated antibodies, and visualized using chemiluminescence (Image-Quan LAS4000). Where indicated cells were treated for the indicated times and concentrations with R4VP or related compounds.

Q: How did the “effect on colony formation of SCC1 cells” value ([1]; 1, 3 and 5 μM) turn out when Cc1ncsc1-c1ccc(CNC(=O)[C@H]2C[C@@H](O)CN2C(=O)[C@H](NC(=O)CCC(=O)NCCCCOc2ccc(Oc3ccc(N(Cc4ccccc4)C(=O)CCl)cc3)cc2)C(C)(C)C)cc1 [R4VP, N1-(4-(4-(4-(N-benzyl-2-chloroacetamido)phenoxy)phenoxy)butyl)-N4-((R)-1-((2R,4R)-4-hydroxy-2-((4-(4-methylthiazol-5-yl)benzyl)carbamoyl)pyrrolidin-1-yl)-3,3-dimethyl-1-oxobutan-2-yl)succinamide] was run?
A: inhibiting colony formation

Q: And the pIC50 ([1]; Homo sapiens, squamous cell carcinoma cell line, printed HCC1)?
A: > 6.00

Q: And the “effect on colony formation of A375R cells” value (human A375R melanoma)?
A: inhibited colony formation of melanoma and osteosarcoma cells in a dose dependent manner; also recorded: inhibits colony formation of human A375R melanoma

Q: What about the “concentration inhibiting growth and proliferation” value (A375R melanoma cells [2]; A375R) of the same compound?
A: ≥ 10 µM

Q: And the “effect on growth and proliferation of A375R cells” value (A375R melanoma cells [2])?
A: inhibits A375R proliferation

Q: And the “effect on proliferation of U2OS cells” value [3]?
A: growth inhibitory effects were also observed; also recorded: inhibits proliferation of U2OS human osteosarcoma cells in a dose dependent manner

Q: What about the “effect on proliferation/viability of B16F10 cells” value [4] of the same compound?
A: inhibits proliferation and colony formation

Q: What about the “effect on proliferation/viability of B16F10 cells” value ([4]; listed as RNF4-VHL-PROTAC) of the same compound?
A: inhibits cell proliferation and colony formation

Q: And the “effect on colony formation of B16F10 cells” value [5]?
A: inhibits proliferation and colony formation

Q: What about the “effect on colony formation of B16F10 cells” value ([5]; listed as RNF4-VHL-PROTAC) of the same compound?
A: inhibits cell proliferation and colony formation

Q: What about the “cell death, accumulation of cells in sub-G1” value (A375R melanoma cells [6]) of the same compound?
A: extensive cell death

Q: And the “cell death, accumulation of cells in sub-G1” value (A375R melanoma cells [6]; listed as RNF4-VHL-PROTAC)?
A: results in cell-death

Q: And the “effect on colony formation of U2OS cells” value (human U2OS sarcoma cells)?
A: inhibited colony formation of melanoma and osteosarcoma cells in a dose dependent manner; also recorded: inhibits colony formation of human U2OS sarcoma cells

Q: What about the “effect on proliferation of U266 cells” value (human Myeloma U266 cells) of the same compound?
A: growth inhibitory effects were also observed; also recorded: inhibits proliferation of human Myeloma U266cells

Q: And the “RNF4 degradation in the presence of proteasome inhibitor MG132” value (RNF4; A375R cells, MG132 as printed)?
A: can be inhibited by the proteasome inhibitor MG132; also recorded: restored to levels similar to control treated cells

Q: And the “RNF4 protein level (exogenous HA-RNF4 or endogenous)” value (RNF4; A375R cells, three hours treatment, western blot)?
A: reduced the level of exogenous or endogenous RNF4 protein; also recorded: induced degradation of RNF4

Q: What about the “endogenous RNF4 level, dose dependence” value (RNF4; A375 melanoma cells) of the same compound?
A: reduces the level of endogenous RNF4 in A375 melanoma cells in a dose dependent manner
